This is an account of results in ChEMBL document CHEMBL1155324, “Synthesis and evaluation of a series of 2,4-diaminopyridine derivatives as potential positron emission tomography tracers for neuropeptide Y Y1 receptors” (Bioorg Med Chem Lett, 2009).

Each structure is given as a SMILES string.

Series [1] is described as follows: Octanol-water distribution coefficient log Dat pH 7.4 by water-plug aspiration/injection method combined with HPLC-mass spectrometry.
In series [2] the target is T1, Neuropeptide Y receptor type 1 (Homo sapiens, UniProt P25929).
T1 sequence (P25929 whole entry): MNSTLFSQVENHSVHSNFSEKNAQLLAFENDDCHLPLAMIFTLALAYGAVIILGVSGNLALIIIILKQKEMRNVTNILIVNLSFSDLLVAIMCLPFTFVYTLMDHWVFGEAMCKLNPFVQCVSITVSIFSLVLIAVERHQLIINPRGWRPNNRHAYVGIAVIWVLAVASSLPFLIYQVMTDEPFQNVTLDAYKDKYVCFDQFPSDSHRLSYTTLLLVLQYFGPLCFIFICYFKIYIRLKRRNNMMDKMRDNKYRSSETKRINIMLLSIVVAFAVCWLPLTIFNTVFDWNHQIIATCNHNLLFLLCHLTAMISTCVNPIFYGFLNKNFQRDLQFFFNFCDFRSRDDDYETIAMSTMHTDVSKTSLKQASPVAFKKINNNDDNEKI
As to the kind of experiment: Displacement of [125I]-PYY from human NPYY1 receptor overexpressed in CHO cell membrane after 120 mins by scintillation counting. Format: cell membranes. (In general: Displacement assays read how much labelled ligand stays bound in the presence of the test substance.)

Series [3] deals with T2, Neuropeptide Y receptor type 2 (Homo sapiens, UniProt P49146).
T2 sequence (P49146 whole entry): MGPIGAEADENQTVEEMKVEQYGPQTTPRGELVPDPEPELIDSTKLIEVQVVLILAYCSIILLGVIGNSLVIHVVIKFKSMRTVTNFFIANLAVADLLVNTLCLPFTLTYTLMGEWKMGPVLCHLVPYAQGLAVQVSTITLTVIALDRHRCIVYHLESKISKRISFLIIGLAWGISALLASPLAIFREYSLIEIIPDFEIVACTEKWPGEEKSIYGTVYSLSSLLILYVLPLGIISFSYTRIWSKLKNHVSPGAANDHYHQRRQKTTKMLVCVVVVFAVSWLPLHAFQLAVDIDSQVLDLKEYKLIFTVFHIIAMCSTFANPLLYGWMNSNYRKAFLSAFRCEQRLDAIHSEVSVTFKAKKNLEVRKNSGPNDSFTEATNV
As to the kind of experiment: Displacement of [125I]-PYY from human NPYY2 receptor.

For series [4], the target named is Neuropeptide Y receptor type 4 (Homo sapiens, UniProt P50391). As to the kind of experiment: Displacement of [125I]-PYY from human NPYY4 receptor.
Series [5] addresses T3, Neuropeptide Y receptor type 5 (Homo sapiens, UniProt Q15761).
T3 sequence (Q15761 whole entry): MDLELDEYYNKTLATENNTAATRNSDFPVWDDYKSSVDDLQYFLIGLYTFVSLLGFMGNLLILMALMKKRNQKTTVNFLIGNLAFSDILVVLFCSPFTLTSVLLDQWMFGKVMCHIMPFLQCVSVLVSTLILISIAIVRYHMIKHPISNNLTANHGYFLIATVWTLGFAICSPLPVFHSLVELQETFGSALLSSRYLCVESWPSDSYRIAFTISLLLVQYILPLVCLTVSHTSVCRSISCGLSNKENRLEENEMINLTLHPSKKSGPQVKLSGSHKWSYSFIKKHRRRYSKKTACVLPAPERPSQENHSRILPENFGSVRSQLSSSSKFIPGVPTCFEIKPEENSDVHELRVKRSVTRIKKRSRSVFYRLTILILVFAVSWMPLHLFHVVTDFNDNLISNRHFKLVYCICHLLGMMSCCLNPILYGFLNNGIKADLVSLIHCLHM
As to the kind of experiment: Displacement of [125I]-PYY from human NPYY5 receptor.

Series [6] can be described thus: Ratio of permeability from basal to apical side to apical to basal side of human KB-3-1 cells by scintillation counting. Format: ADME, cell-based.

Chain of Neuropeptide Y receptor type 4 (P50391 whole entry): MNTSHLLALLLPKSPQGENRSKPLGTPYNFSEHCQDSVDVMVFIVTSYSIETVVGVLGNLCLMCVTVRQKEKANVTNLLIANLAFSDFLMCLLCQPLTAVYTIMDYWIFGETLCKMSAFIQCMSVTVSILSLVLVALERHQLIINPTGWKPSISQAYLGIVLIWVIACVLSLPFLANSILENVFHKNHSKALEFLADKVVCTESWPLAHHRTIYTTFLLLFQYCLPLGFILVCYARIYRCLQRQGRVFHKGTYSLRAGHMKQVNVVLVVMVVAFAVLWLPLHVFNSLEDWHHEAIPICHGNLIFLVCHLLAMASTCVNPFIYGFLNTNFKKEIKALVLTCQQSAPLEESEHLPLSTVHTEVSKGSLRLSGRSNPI

What is called logD is the decadic logarithm of the distribution of all forms, ionised or not, between an organic phase and buffer at a given pH. For `Cc1nc(SCc2cc(N3CCSCC3)cc(NCc3cccc(F)n3)n2)oc1C`, the logD in series [1] amounted to 3.5.
One may read the IC50 as the concentration needed to halve the response being measured. Regarding `Cc1cccc(CNc2cc(N3CCOCC3)cc(CSc3nc4c(o3)CCCC4)n2)n1`, the logD in series [1] was 3.5. In addition, the IC50 in series [2] was found to be 0.46 nM.
As for `Cc1cccc(CNc2cc(N3CCOCC3)cc(CSc3nc(C)c(C)s3)n2)n1`, the logD in series [1] turned out to be 2.9. In addition, in series [2], the IC50 is 0.27 nM.
Take `Cc1cccc(CNc2cc(N3CCOCC3)cc(CSc3nc(C)c(CF)s3)n2)n1`: in series [1], the logD is 2.3. In series [2], this compound came in with an IC50 of 0.56 nM.
Turning to `Cc1nc(SCc2cc(N3CCS(=O)(=O)CC3)cc(NCc3cccc(F)n3)n2)oc1C`, the logD in series [1] came out at 2.3. In series [2], this compound returned a concentration for half-maximal inhibition (IC50) of 8 nM.
Turning to `COCc1cccc(CNc2cc(N3CCOCC3)cc(CSc3nc(C)c(C)o3)n2)n1`, the logD in series [1] stood at 2.8. This compound gave an IC50 in series [2] of 4.3 nM.
As to `Cc1nc(SCc2cc(N3CCOCC3)cc(NCc3cccc(COCCF)n3)n2)oc1C`, the pH-dependent lipophilicity (logD) in series [1] was determined as 2.6. In series [2], the IC50 was 10 nM.
As to `Cc1cccc(CNc2cc(N3CCS(=O)(=O)CC3)cc(CSc3nc(C)c(C)o3)n2)n1`, in series [1], the logD came out at 2.2. Besides, the IC50 in series [2] was 1.7 nM.
As to `CCc1oc(SCc2cc(N3CCOCC3)cc(NCc3cccc(C)n3)n2)nc1C`, the log distribution coefficient (logD) in series [1] came to 3.1. The compound also came in with an IC50 in series [2] of 0.39 nM.
`CCc1sc(SCc2cc(N3CCOCC3)cc(NCc3cccc(C)n3)n2)nc1CF`: the IC50 in series [3], in series [4] and in series [5] was > 10000 nM throughout.
In the case of `Cc1nc(SCc2cc(N3CCOCC3)cc(NCc3cccnc3F)n2)oc1C`, the log distribution coefficient (logD) in series [1] was 3. In addition, in series [2], the IC50 turned out to be 7.7 nM.
As to `Cc1cccc(CNc2cc(N3CCOCC3)cc(CSc3nc(C)c(C)o3)n2)n1`, the log distribution coefficient (logD) in series [1] stood at 2.8. Besides, in series [2], the IC50 came to 0.69 nM.
Taken in the same sequence, the figures for `Cc1nc(SCc2cc(N3CCOCC3)cc(NCc3cccc(F)n3)n2)oc1C` were 3.1 and 1.5 nM.
As for `Cc1nc(SCc2cc(N3CCOCC3)cc(NCc3cccc(CF)n3)n2)oc1C`, the logD in series [1] is 3. Also, in series [2], the IC50 is 1.8 nM.
On to `Cc1nc(SCc2cc(N3CCOCC3)cc(NCc3cccc(OCCF)n3)n2)oc1C`, for which the logD in series [1] came to 3.9. Besides, the IC50 in series [2] was 19 nM.
`Cc1nc(SCc2cc(N3CCOCC3)cc(NCc3ccc(F)nc3)n2)oc1C`: the logD in series [1] came to 3. For the same compound, in series [2], the IC50 was 21 nM.
For the compound `Cc1nc(SCc2cc(N3CCOCC3)cc(NCc3ccnc(F)c3)n2)oc1C`, in series [1], the logD turned out to be 3.1. Moreover, the IC50 in series [2] amounted to 5.2 nM.
Turning to `Cc1cccc(CNc2cc(N3CCSCC3)cc(CSc3nc(C)c(C)o3)n2)n1`, the log distribution coefficient (logD) in series [1] amounted to 3.6. This compound displayed an IC50 in series [2] of 0.16 nM.
Usually efflux ratio stands for the permeability from basolateral to apical divided by that in the opposite direction, in the common usage. Consider `Cc1cccc(CNc2cc(N3CCOCC3)cc(CSc3nc(CF)c(C)s3)n2)n1`, for which the logD in series [1] came to 2.7. Also, the efflux ratio in series [6] came to 1.8. In addition, the IC50 in series [3], in series [4] and in series [5] was > 10000 nM each time.
